Reference: patent publication US20260022142A1, “MACROCYCLIC IMMUNOMODULATORS” (Bristol-Myers Squibb Company, priority 2022, published 2026)
pIC50: −log10 of the molar value. Numbered stars: 1 amine (or outer) side, 2 acyl side, 3 side chain; on linkers, the order of the positions; unused ones are H or OH. Bridge positions count the residues as written; N and C are the ends. Square brackets hold non-standard residues; d marks the D form. Peptide text beside a SMILES is read from it. * marks the point of attachment. Phe(3-CF3) = N[C@@H](Cc1cccc(C(F)(F)F)c1)C(=O)O; Bip = N[C@@H](Cc1ccc(-c2ccccc2)cc1)C(=O)O; NH(CH2)16COOH = O=C(O)CCCCCCCCCCCCCCCCN*; NH(CH2)14COOH = O=C(O)CCCCCCCCCCCCCCN*; Phe(3-Me) = Cc1cccc(C[C@H](N)C(=O)O)c1; γGlu = O=C(O)[C@H](CCC(=O)[*:2])N[*:1]; NH(CH2)12COOH = O=C(O)CCCCCCCCCCCCN*; Val(3-OH) = CC(C)(O)[C@H](N)C(=O)O; Cha = N[C@@H](CC1CCCCC1)C(=O)O; Carboxymethyl = O=C(O)C*; Orn = NCCC[C@H](N)C(=O)O; Dab = NCC[C@H](N)C(=O)O; AEEA = NCCOCCOCC(=O)O

Target: T1, PD-1/PD-L1 interaction (PE-labeled human PD-L1-Ig binding to Jurkat cell line over-expressing human PD-1) (Homo sapiens, UniProt Q15116)
T1 construct: expressed in transfected cells; host or cells: Jurkat
Test: Jurkat-PD-1 Cell Binding High-Content Screening Assay (CBA)
Format: cell-based
Conditions: Jurkat cell line over-expressing human PD-1; PE-labeled PD-L1-Ig 20 nM final; read-out: Jurkat hPD1-PDL1 IC50
How it was run: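 Binding of fluorescent PD-L1-Ig (20 nM final) to Jurkat-PD-1 cells was measured by automated imaging after 1 h, following a 2 h compound pre-treatment at 37° C.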

T1 sequence (Q15116 25-288): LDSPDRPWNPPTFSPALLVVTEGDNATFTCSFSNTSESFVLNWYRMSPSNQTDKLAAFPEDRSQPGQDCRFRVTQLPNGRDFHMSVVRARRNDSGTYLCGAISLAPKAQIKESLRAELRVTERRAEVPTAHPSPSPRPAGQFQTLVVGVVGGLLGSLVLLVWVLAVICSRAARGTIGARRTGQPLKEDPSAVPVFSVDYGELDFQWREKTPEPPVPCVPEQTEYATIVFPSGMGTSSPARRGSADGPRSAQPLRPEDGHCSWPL

Compound | pIC50
Cc1cccc(C[C@@H]2NC(=O)[C@H](CC(=O)O)NC(=O)[C@H](Cc3ccc(OCC(=O)O)cc3)NC(=O)[C@H](C)NC(=O)CSC[C@@H](C(=O)N[C@@H](CCN)C(=O)NCCOCCOCC(=O)NCCOCCOCC(=O)NCCOCCOCC(=O)NCCOCCOCC(=O)NCCCCCCCCCCCCCCC(=O)O)NC(=O)[C@H](Cc3cnc[nH]3)NC(=O)[C@H](C(C)(C)O)NC(=O)[C@H](CC3CCCCC3)NC(=O)[C@H](CCN)NC(=O)[C@@H](CC(C)C)NC(=O)[C@H](CCCN)NC(=O)[C@H](Cc3ccc(OCC(=O)O)cc3)NC(=O)[C@H](Cc3ccc(-c4ccccc4)cc3)NC(=O)[C@H](Cc3ccc(OCC(=O)O)cc3)NC2=O)c1 [Compound 3870] ({CH2CO}-AY(Carboxymethyl)D[Phe(3-Me)]Y(Carboxymethyl)[Bip]Y(Carboxymethyl)[Orn][dL][Dab][Cha][Val(3-OH)]HC[Dab][AEEA][AEEA][AEEA][AEEA]-{NH(CH2)14COOH}; thioether N-14) | 7.55
Cc1cccc(C[C@@H]2NC(=O)[C@H](CC(=O)O)NC(=O)[C@H](Cc3ccc(OCC(=O)O)cc3)NC(=O)[C@H](C)NC(=O)CSC[C@@H](C(=O)N[C@@H](CCN)C(=O)NCCOCCOCC(=O)NCCOCCOCC(=O)N[C@@H](CCC(=O)N[C@@H](CCC(=O)NCCCCCCCCCCCCCCCCC(=O)O)C(=O)O)C(=O)O)NC(=O)[C@H](Cc3c[nH]cn3)NC(=O)[C@H](C(C)(C)O)NC(=O)[C@H](CC3CCCCC3)NC(=O)[C@H](CCN)NC(=O)[C@@H](CC(C)C)NC(=O)[C@H](CCCN)NC(=O)[C@H](Cc3ccc(OCC(=O)O)cc3)NC(=O)[C@H](Cc3ccc(-c4ccccc4)cc3)NC(=O)[C@H](Cc3ccc(OCC(=O)O)cc3)NC2=O)c1 [Compound 3871] ({CH2CO}-AY(Carboxymethyl)D[Phe(3-Me)]Y(Carboxymethyl)[Bip]Y(Carboxymethyl)[Orn][dL][Dab][Cha][Val(3-OH)]HC[Dab][AEEA][AEEA][γGlu][γGlu]-{NH(CH2)16COOH}; thioether N-14) | 7.34
CC(C)C[C@H]1NC(=O)[C@H](CCCN)NC(=O)[C@H](Cc2ccc(OCC(=O)O)cc2)NC(=O)[C@H](Cc2ccc(-c3ccccc3)cc2)NC(=O)[C@H](Cc2ccc(OCC(=O)O)cc2)NC(=O)[C@H](Cc2cccc(C(F)(F)F)c2)NC(=O)[C@H](CC(=O)O)NC(=O)[C@H](Cc2ccc(OCC(=O)O)cc2)NC(=O)[C@H](Cc2ccc(OCC(=O)O)cc2)NC(=O)CSC[C@@H](C(=O)N[C@@H](CCN)C(=O)NCCOCCOCC(=O)NCCOCCOCC(=O)N[C@@H](CCC(=O)N[C@@H](CCC(=O)NCCCCCCCCCCCCCCC(=O)O)C(=O)O)C(=O)O)NC(=O)[C@H](Cc2cnc[nH]2)NC(=O)[C@H](C(C)(C)O)NC(=O)[C@H](CC2CCCCC2)NC(=O)[C@H](CCN)NC1=O [Compound 3872] ({CH2CO}-Y(Carboxymethyl)Y(Carboxymethyl)D[Phe(3-CF3)]Y(Carboxymethyl)[Bip]Y(Carboxymethyl)[Orn][dL][Dab][Cha][Val(3-OH)]HC[Dab][AEEA][AEEA][γGlu][γGlu]-{NH(CH2)14COOH}; thioether N-14) | 6.76
CC(C)C[C@@H]1NC(=O)CSC[C@@H](C(=O)N[C@@H](CCN)C(=O)NCCCCCCCCCCCCC(=O)O)NC(=O)[C@H](Cc2cnc[nH]2)NC(=O)[C@H](C(C)(C)O)NC(=O)[C@H](CC2CCCCC2)NC(=O)[C@H](CCN)NC(=O)[C@@H](CC(C)C)NC(=O)[C@H](CCCN)NC(=O)[C@H](Cc2ccc(OCC(=O)O)cc2)NC(=O)[C@H](Cc2ccc(-c3ccccc3)cc2)NC(=O)[C@H](Cc2ccc(OCC(=O)O)cc2)NC(=O)[C@H](Cc2cccc(C(F)(F)F)c2)NC(=O)[C@H](CC(=O)O)NC(=O)[C@H](Cc2ccc(OCC(=O)O)cc2)NC1=O [Compound 3873] ({CH2CO}-LY(Carboxymethyl)D[Phe(3-CF3)]Y(Carboxymethyl)[Bip]Y(Carboxymethyl)[Orn][dL][Dab][Cha][Val(3-OH)]HC[Dab]-{NH(CH2)12COOH}; thioether N-14) | 7.15
